Assay results: patent publication US20240108618A1, “KRAS G12C INHIBITOR DOSING REGIMENS” (Eli Lilly and Company, priority 2022, published 2024)

Tested on: KRAS G12C-mutant advanced solid tumors
Test: NCT04956640 Phase 1a monotherapy clinical response (BOR, ORR, DCR, DOR, TTR, % change from baseline, treatment duration)
Assay type: in vivo, human
Conditions: for Best overall response (BOR): Complete Response (CR), % / Best overall response (BOR): No Evaluable (NE), % / Best overall response (BOR): Partial Response (PR), % / Best overall response (BOR): Partial Response, pending confirmation and ongoing (uPR), % / Best overall response (BOR): Progressive Disease (PD), % / Best overall response (BOR): Stable Disease (SD), % / Disease control rate (CR + PR + uPR + SD), % / Objective response rate (CR + PR), % / Objective response rate, confirmed and unconfirmed (CR + PR + uPR), %: Phase 1a NSCLC patients; for Duration of response (DOR) 6 to <9 months / Duration of response (DOR) <6 months / Time to response (TTR) 2 to <4 months / Time to response (TTR) 4 to <6 months / Time to response (TTR) 6 to <9 months / Time to response (TTR) <2 months: Phase 1a responders
Procedure: The term “BOR” as used herein refers to best overall response based on investigator assessments using RECIST criteria (version 1.1). The minimum duration for BOR of SD is at least 6 weeks after the date of first dose of study drug.
The term “DOR” as used herein refers to duration of response, wherein DOR in months is calculated as the event or censoring date minus the response start date plus 1 day divided by 30.4375.
The term “ORR” as used herein refers to objective response rate, wherein objective response rate is the proportion of patients with BOR of CR or PR. Objective response rate, unconfirmed, is the proportion of patients with BOR of CR, PR, or uPR.
The term “TTR” as used herein refers to time to response, wherein TTR in months is calculated as response start date minus first dose date plus 1 day divided by 30.4375.
NCT04956640 includes Phase 1a dose escalation (Part A of NCT04956640, see Table 3) followed by a Phase 1b dose expansion (Parts B to E of NCT04956640, see Table 4). […] Phase 1b dose expansion will include 12 cohorts (See Table 4) to further evaluate safety and clinical activity.

[1] = Without Prior KRAS G12Ci (N = 8)
[2] = starting dose 50 mg BID (N = 14)
[3] = starting dose 100 mg BID (N = 24)
[4] = starting dose 150 mg BID (N = 25)
[5] = starting dose 200 mg BID (N = 12)

For `C=CC(=O)N1CCN2C(=O)c3cc(F)c(-c4ccc(F)c5sc(N)c(C#N)c45)c(Cl)c3OCC[C@H]2C1` (single isomer, unassigned) [Formula I], the “Best observed response PD (unconfirmed and confirmed), patients” value (“Best observed response PD” below) (CRC) was 1, the “Best observed response PR (unconfirmed and confirmed), patients” value (from here on “Best observed response PR”) (CRC) was 1 and the “Best observed response SD, patients” value (CRC) was 13. The “Best observed response PD” value (NSCLC naïve to KRAS G12Ci) was 1, the “Best observed response SD, patients” value (NSCLC naïve to KRAS G12Ci) was 1 and the “Best observed response PD” value (NSCLC with prior KRAS G12Ci) was 3. The “Best observed response PR” value (NSCLC with prior KRAS G12Ci) was 1, the “Best observed response SD, patients” value (NSCLC with prior KRAS G12Ci) was 3 and the “Best observed response PD” value (PANC) was 2. For the same compound, the “Best observed response PR” value (PANC) was 2, the “Best observed response SD, patients” value (PANC) was 2 and the “Best overall response (BOR): Complete Response (CR), %” value (from here on “Best overall response (BOR) … (CR), %”) (Total (N = 22)) was “(0.0) %”. The “Best overall response (BOR): No Evaluable (NE), %” value (Total (N = 22)) was “(4.5) %”, the “Best overall response (BOR): Partial Response (PR), %” value (“Best overall response (BOR) … (PR), %” below) (Total (N = 22)) was “(18.2) %” and the “Best overall response (BOR): Partial Response, pending confirmation and ongoing (uPR), %” value (“Best overall response (BOR) … (uPR), %” for short) (Total (N = 22)) was “(0.0) %”. The “Best overall response (BOR): Progressive Disease (PD), %” value (shortened to “Best overall response (BOR) … (PD), %”) (Total (N = 22)) was “(22.7) %”, the “Best overall response (BOR): Stable Disease (SD), %” value (“Best overall response … (SD), %” for short) (Total (N = 22)) was “(54.5) %” and the “Disease control rate (CR + PR + uPR + SD), %” value (Total (N = 22)) was “(72.7) %”. The “Objective response rate (CR + PR), %” value (Total (N = 22)) was “(18.2) %”, the “Objective response rate, confirmed and unconfirmed (CR + PR + uPR), %” value (“Objective response rate … (CR + PR + uPR), %” below) (Total (N = 22)) was “(18.2) %” and the “Best overall response (BOR) … (CR), %” value (With Prior KRAS G12Ci (N = 14)) was “(0.0) %”. For the same compound, the “Best overall response (BOR): No Evaluable (NE), %” value (With Prior KRAS G12Ci (N = 14)) was “(7.1) %”, the “Best overall response (BOR) … (PR), %” value (With Prior KRAS G12Ci (N = 14)) was “(7.1) %” and the “Best overall response (BOR) … (uPR), %” value (With Prior KRAS G12Ci (N = 14)) was “(0.0) %”. For the same compound, the “Best overall response (BOR) … (PD), %” value (With Prior KRAS G12Ci (N = 14)) was “(28.6) %”, the “Best overall response … (SD), %” value (With Prior KRAS G12Ci (N = 14)) was “(57.1) %” and the “Disease control rate (CR + PR + uPR + SD), %” value (With Prior KRAS G12Ci (N = 14)) was “(64.3) %”. For the same compound, the “Objective response rate (CR + PR), %” value (With Prior KRAS G12Ci (N = 14)) was “(7.1) %”, the “Objective response rate … (CR + PR + uPR), %” value (With Prior KRAS G12Ci (N = 14)) was “(7.1) %” and the “Best overall response (BOR) … (CR), %” value [1] was “(0.0) %”. For the same compound, the “Best overall response (BOR): No Evaluable (NE), %” value [1] was “(0.0) %”, the “Best overall response (BOR) … (PR), %” value [1] was “(37.5) %” and the “Best overall response (BOR) … (uPR), %” value [1] was “(0.0) %”. For the same compound, the “Best overall response (BOR) … (PD), %” value [1] was “(12.5) %”, the “Best overall response … (SD), %” value [1] was “(50.0) %” and the “Disease control rate (CR + PR + uPR + SD), %” value [1] was “(87.5) %”. The “Objective response rate (CR + PR), %” value [1] was “(37.5) %”, the “Objective response rate … (CR + PR + uPR), %” value [1] was “(37.5) %” and the “Duration of response (DOR) 6 to <9 months” value (from here on “Duration … to <9 months”) (Total (N = 75)) was 3 (15.8) n (%). The “Duration of response (DOR) <6 months” value (Total (N = 75)) was 16 (84.2) n (%), the “Time to response (TTR) 2 to <4 months” value (Total (N = 75)) was 2 (10.5) n (%) and the “Time to response (TTR) 4 to <6 months” value (Total (N = 75)) was 2 (10.5) n (%). For the same compound, the “Time to response (TTR) 6 to <9 months” value (Total (N = 75)) was 1 (5.3) n (%), the “Time to response (TTR) <2 months” value (Total (N = 75)) was 14 (73.7) n (%) and the “Duration … to <9 months” value [2] was 0 (0.0) n (%). The “Duration of response (DOR) <6 months” value [2] was 2 (100.0) n (%), the “Time to response (TTR) 2 to <4 months” value [2] was 0 (0.0) n (%) and the “Time to response (TTR) 4 to <6 months” value [2] was 0 (0.0) n (%). For the same compound, the “Time to response (TTR) 6 to <9 months” value [2] was 0 (0.0) n (%), the “Time to response (TTR) <2 months” value [2] was 2 (100.0) n (%) and the “Duration … to <9 months” value [3] was 0 (0.0) n (%). The “Duration of response (DOR) <6 months” value [3] was 7 (100.0) n (%), the “Time to response (TTR) 2 to <4 months” value [3] was 1 (14.3) n (%) and the “Time to response (TTR) 4 to <6 months” value [3] was 0 (0.0) n (%). The “Time to response (TTR) 6 to <9 months” value [3] was 1 (14.3) n (%), the “Time to response (TTR) <2 months” value [3] was 5 (71.4) n (%) and the “Duration … to <9 months” value [4] was 2 (33.3) n (%). The “Duration of response (DOR) <6 months” value [4] was 4 (66.7) n (%), the “Time to response (TTR) 2 to <4 months” value [4] was 0 (0.0) n (%) and the “Time to response (TTR) 4 to <6 months” value [4] was 2 (33.3) n (%). The “Time to response (TTR) 6 to <9 months” value [4] was 0 (0.0) n (%), the “Time to response (TTR) <2 months” value [4] was 4 (66.7) n (%) and the “Duration … to <9 months” value [5] was 1 (25.0) n (%). For the same compound, the “Duration of response (DOR) <6 months” value [5] was 3 (75.0) n (%), the “Time to response (TTR) 2 to <4 months” value [5] was 1 (25.0) n (%) and the “Time to response (TTR) 4 to <6 months” value [5] was 0 (0.0) n (%). For the same compound, the “Time to response (TTR) 6 to <9 months” value [5] was 0 (0.0) n (%), the “Time to response (TTR) <2 months” value [5] was 3 (75.0) n (%) and the “Patients with best overall response of CR or PR” value (Phase 1a, Total (N = 75)) was 19 (25.3) N′ (%).
